# Assay results published in paper PMC5730604.
# Positions of bridges follow the written chain, without caps; N, C: chain ends. Non-standard residues stand in square brackets, D forms with d. Residues, ends and D or L forms follow the SMILES beside them. Chains are numbered I, II in the order given. *: point of attachment. PEG28 = NCCOCCOCCOCCOCCOCCOCCOCCOCCOCCOCCOCCOCCOCCOCCOCCOCCOCCOCCOCCOCCOCCOCCOCCOCCOCCOCCOCCOCCC(=O)O; Tyr(3-NO2) = N[C@@H](Cc1ccc(O)c([N+](=O)[O-])c1)C(=O)O; Hyp = O=C(O)[C@@H]1C[C@@H](O)CN1; For = O=C*
# Experiments:
# in vivo = details: mouse, serum, sc
# HT-29 cells = HT-29 cells (Homo sapiens, UniProt P26006); assay: Competition with 200 nM B9-Biotin (flow cytometry); format: binding
# Chain of HT-29 cells (P26006 33-1051): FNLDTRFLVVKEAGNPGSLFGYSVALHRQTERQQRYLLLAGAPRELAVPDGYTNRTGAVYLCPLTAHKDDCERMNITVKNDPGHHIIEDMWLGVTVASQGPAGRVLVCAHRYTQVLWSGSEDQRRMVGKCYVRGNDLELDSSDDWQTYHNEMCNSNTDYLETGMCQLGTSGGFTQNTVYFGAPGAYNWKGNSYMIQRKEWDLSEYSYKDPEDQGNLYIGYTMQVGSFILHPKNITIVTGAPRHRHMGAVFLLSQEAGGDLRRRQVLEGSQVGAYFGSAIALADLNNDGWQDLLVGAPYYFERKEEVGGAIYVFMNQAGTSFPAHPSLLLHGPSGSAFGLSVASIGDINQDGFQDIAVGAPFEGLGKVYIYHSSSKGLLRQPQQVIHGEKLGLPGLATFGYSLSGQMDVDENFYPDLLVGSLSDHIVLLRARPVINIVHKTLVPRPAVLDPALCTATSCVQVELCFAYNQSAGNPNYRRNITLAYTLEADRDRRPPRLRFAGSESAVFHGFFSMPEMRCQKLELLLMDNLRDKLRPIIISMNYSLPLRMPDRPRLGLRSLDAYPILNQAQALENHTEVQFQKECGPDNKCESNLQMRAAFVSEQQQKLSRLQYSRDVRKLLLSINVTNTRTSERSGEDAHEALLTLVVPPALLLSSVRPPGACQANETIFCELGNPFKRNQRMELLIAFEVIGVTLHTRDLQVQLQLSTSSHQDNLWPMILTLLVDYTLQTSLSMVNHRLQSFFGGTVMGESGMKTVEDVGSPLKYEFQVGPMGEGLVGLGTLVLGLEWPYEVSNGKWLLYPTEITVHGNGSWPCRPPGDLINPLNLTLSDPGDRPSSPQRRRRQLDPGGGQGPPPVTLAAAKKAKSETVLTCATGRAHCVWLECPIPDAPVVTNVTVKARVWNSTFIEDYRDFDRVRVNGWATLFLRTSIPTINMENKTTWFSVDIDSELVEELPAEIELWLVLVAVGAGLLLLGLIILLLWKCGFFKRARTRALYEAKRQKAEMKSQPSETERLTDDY
# Chain of HT-29 cells (P05556 21-798 partner): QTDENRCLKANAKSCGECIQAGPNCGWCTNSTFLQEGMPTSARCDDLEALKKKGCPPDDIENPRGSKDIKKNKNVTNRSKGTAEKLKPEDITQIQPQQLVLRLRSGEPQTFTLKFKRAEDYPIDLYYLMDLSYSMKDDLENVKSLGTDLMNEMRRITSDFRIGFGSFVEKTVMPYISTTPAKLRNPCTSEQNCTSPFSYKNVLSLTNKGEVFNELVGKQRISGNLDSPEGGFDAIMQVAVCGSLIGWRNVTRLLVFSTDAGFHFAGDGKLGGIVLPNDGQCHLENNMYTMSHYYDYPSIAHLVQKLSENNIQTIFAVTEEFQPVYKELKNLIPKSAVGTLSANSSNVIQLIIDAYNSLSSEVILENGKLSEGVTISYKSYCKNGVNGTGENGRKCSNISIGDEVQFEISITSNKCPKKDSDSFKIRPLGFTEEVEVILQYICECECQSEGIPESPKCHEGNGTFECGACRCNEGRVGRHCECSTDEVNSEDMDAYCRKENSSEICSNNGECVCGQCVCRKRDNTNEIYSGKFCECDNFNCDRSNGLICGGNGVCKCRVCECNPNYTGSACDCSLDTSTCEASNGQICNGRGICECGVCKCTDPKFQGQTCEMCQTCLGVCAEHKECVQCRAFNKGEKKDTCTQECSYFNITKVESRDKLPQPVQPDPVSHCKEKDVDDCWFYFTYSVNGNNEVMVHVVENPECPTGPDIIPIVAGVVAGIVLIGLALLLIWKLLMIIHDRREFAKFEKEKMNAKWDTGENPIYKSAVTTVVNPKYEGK
# Balb/c mice = assay: Dose escalation study and acute toxicity; format: in vivo, Mouse
# Description: Dose escalation study and evaluation of acute toxicity in mice
# T o study whether a repeated subcutaneous dosing of Y9 has any local or systemic toxic effects on animals, the following dose escalation study was performed. Groups of 5 Balb/c mice were inoculated subcutaneously with 100 µl of 0.9 % saline (NaCl) solution containing either 200 nmol, 400 nmol or 800 nmol Y9 . Two control groups (a total of 10 mice) received only 0.9% saline. T he injections were repeated every other day f or a total of seven injections. B ody weig ht and general health observations were evaluated on a daily basis. At day 4 after the last inoculation of the solutions blood was collected under isof lurane anesthesia f or hematology and f or serum analysis by retro- orbital puncture. Organs (sk in, brain, heart, k idney, liver, lung, ovaries/testis, spleen, local and distal lymph nodes, mesentery, small intestine, stomach, pancreas) were isolated af ter euthanasia with an isof lurane overdose for histopathology and body weight-normalized organ weights (brain, kidney, heart, liver, spleen) were calculated.
# W eights of the carcass, brain, heart, kidney, liver and spleen were determined and body weight-normalized organ weight in % was calculated as follows:
# Body weight-normalized organ weight [%] = organ weight [g] x 100 […]
# The following serum parameters were analyzed with the Vitros 250 (Johnson&Johnson) machine measuring parameters at 25°C: […] (CK), alk aline Phosphatase (ALP), Amylase, GOT/AST, GPT/ALT, GGT, LDH, Lipase, total protein (TP), Glucose (GLU), Cholesterol (CHOL), Triglyceride (TRIG), blood urea nitrogen (BUN), Creatinine (CREA), total bilirubin (TBIL), inorganic Phosphorus (PHOS), Sodium (Na), Potassium (K), Calcium (Ca), […]
# (MCHC), banded neutrophils, segmented neutrophils, lymphocytes (Lymphs), monocytes (Monos), eosinophils (EOS), basophils (BASO). The organ sections were histopathological […]
# pathological abnormalities f ound. […]
# glycerin (f inal concentration 227 µg/ml). […]
# on a nitrocellulose membrane. For calibration, control serum was spiked with Y9 in […]
# The membrane was washed 3
# The membrane was f inally washed 3 times in […]
# quantitated using Image J software. The calibration samples were used to prepare a linear […]
# values of < 0.05 were considered signif icant.
# [1] = system: A431, U-87 or HT-29 cells; assay: MTT assay; format: cell-based, Human; details: 100 nM to 10 µM, 24 h or 72 h, A431, U-87, HT-29 cells, triplicates
# Description: were recorded at 278 K and referenced to the water signal. Spectra were assigned with CCPNMR1 using the sequential assignment protocol. Secondary Hα chemical shif ts were calculated as the difference between the measured Hα chemical shift and the respective random coil shif t.2 Random coil shifts were temperature corrected using the correction factors calculated by Kjaergaard et al.3 For the D-amino acids, the random coil shift of the respective L-amino acid was used, the random coil shif t of Tyr was used for Tyr(3-NO2) and 4.54 ppm was used f or Hyp Hα . Oxid ized Y9 (MW 5268.0) was prepared by dissolving Y9 in Na2HPO4 buff er (50 mM, pH 7.0). After HPLC purif ication, the oxidized Y9 (2.1 mg) was dissolved in 90% H2O/10% D2O (500 µL) at pH 2.9 and NMR spectra were acquired as described above. […]
# Stained cells were analyzed by f low cytometr y. […]
# At the end of the incubation period (24 h or 72 h at 37°C in 5% CO2) cells were 30- 80% conf luent. […] 04M HCl were added and absorbances were measured at 595 nm.
# Absorbances were plotted against the agent’s concentrations. A high absorbance value […]
# present in the well as compared to wells with low absorbance values.
# Figure S13 : MTT assays showing no ef f ect of Y9 and sc- Y9 on the viability and prolif eration of diff erent tumor cell lines. […] To indicate background: the absorbance values of medium without cells were between 0.11 and […]
# [2] = Balb/c mice, s.c. 200, 400 or 800 nmol every two days for 14 days
# [3] = highest dose 800 nmol (printed 800 nm), repeated s.c., day 4 after last dose
smiles,measurement,setting,value
"CC[C@H](C)[C@H](NC(=O)[C@H](CCSC)NC=O)C(=O)N[C@@H](Cc1ccccc1)C(=O)N[C@@H](CC(C)C)C(=O)NCC(=O)NCC(=O)N[C@@H](CCCCNC(=O)CCOCCOCCOCCOCCOCCOCCOCCOCCOCCOCCOCCOCCOCCOCCOCCOCCOCCOCCOCCOCCOCCOCCOCCOCCOCCOCCOCCOCCNC(=O)[C@H]1CSSC[C@@H](N)C(=O)N[C@H](CC(=O)O)C(=O)NCC(=O)N[C@@H](Cc2ccc(O)c([N+](=O)[O-])c2)C(=O)NCC(=O)N2C[C@H](O)C[C@H]2C(=O)N[C@@H](CC(N)=O)C(=O)N1)C(=O)N[C@@H](CCCCNC(=O)CCOCCOCCOCCOCCOCCOCCOCCOCCOCCOCCOCCOCCOCCOCCOCCOCCOCCOCCOCCOCCOCCOCCOCCOCCOCCOCCOCCOCCNC(=O)[C@H]1CSSC[C@@H](N)C(=O)N[C@H](CC(=O)O)C(=O)NCC(=O)N[C@@H](Cc2ccc(O)c([N+](=O)[O-])c2)C(=O)NCC(=O)N2C[C@H](O)C[C@H]2C(=O)N[C@@H](CC(N)=O)C(=O)N1)C(=O)O [Y9] (I: H-[dC][dD]G[Tyr(3-NO2)]G[Hyp]N[dC][PEG28] / II: H-[dC][dD]G[Tyr(3-NO2)]G[Hyp]N[dC][PEG28] / III: For-MIFLGGKK-OH; disulfide I:1-I:8, II:1-II:8; amide I:C-III:7, II:C-III:8)",half-life,in vivo,~2 h
same,level at time molar at 1 h,in vivo; 200 nmol,350 nM
same,level at time molar at 7 h,in vivo; 200 nmol,75 nM
same,concentration to displace B9-Biotin relative to the monovalent binder,HT-29 cells,four-fold lower
same,hematological analysis including differential hemogram of white blood cells,"Balb/c mice; Balb/c mice, repeated s.c. dosing",no significant changes
same,relative organ weights,"Balb/c mice; Balb/c mice, repeated s.c. dosing, no histopathological abnormalities or steatosis in liver",slightly enlarged liver weight
same,histopathological effects in organs,"Balb/c mice; Balb/c mice, s.c. 200 nmol every two days for 14 days, liver, kidney, pancreas, spleen, heart, lung, ovaries, brain, stomach, intestine, mesentery",No histopathological effects
same,histopathological effects in organs,"Balb/c mice; Balb/c mice, s.c. 400 nmol every two days for 14 days, same organs",No histopathological effects
same,kidney histopathology,"Balb/c mice; Balb/c mice, s.c. 800 nmol every two days for 14 days",moderate degenerative changes of the kidney
same,draining lymph nodes,Balb/c mice; [2],mild but significant dose-dependent immune infiltration and lymphoid hyperplasia
same,local effects at the injection site,Balb/c mice; [2],increased neutrophil and monocyte infiltrates at the injection site
same,amylase level in serum,Balb/c mice; [3],significantly increased
same,blood urea nitrogen (BUN) level in serum,Balb/c mice; [3],significantly increased
same,cholesterol level in serum,Balb/c mice; [3],significantly increased
same,creatinine (CREA) level in serum,Balb/c mice; [3],slightly but significant increased
same,lipase level in serum,Balb/c mice; [3],slightly but significant increased
same,triglycerides level in serum,Balb/c mice; [3],significantly increased
same,effect on viability and proliferation (MTT),[1],No effect
